Data set [1] deals with T1, human histamine H3 receptor (hH3R) (Homo sapiens, UniProt Q9Y5N1).
T1 construct: expressed in transfected cells
Description: radioligand displacement binding assay, [3H]Nα-methylhistamine, HEK293 cells stably expressing hH3R. Particulars: HEK293 cells stably expressing human H3R, mean (95% CI). On the procedure:
[^3H]N^α-methylhistamine was used as a radioligand.
The radioligand displacement binding assay was carried out in HEK-293 cells stably expressing the recombinant hH3R as described by Kottke et al. with slight modifications. […] Obtained data from at least three experiments (in at least duplicates) were analyzed with GraphPad Prism 6.1 (San Diego, CA, USA) using nonlinear regression (one-site competition on logarithmic scale), and Ki values were transformed from IC50 according to Cheng-Prusoff. Statistical analysis was performed on −log Ki values.
On the technique in general: Displacement assays read how much labelled ligand stays bound in the presence of the test substance.

Data set [2] has as its target T2, hMAO B (Homo sapiens, UniProt P27338).
T2 construct: purchased Sigma Aldrich M7441
T2 sequence (P27338 1-520): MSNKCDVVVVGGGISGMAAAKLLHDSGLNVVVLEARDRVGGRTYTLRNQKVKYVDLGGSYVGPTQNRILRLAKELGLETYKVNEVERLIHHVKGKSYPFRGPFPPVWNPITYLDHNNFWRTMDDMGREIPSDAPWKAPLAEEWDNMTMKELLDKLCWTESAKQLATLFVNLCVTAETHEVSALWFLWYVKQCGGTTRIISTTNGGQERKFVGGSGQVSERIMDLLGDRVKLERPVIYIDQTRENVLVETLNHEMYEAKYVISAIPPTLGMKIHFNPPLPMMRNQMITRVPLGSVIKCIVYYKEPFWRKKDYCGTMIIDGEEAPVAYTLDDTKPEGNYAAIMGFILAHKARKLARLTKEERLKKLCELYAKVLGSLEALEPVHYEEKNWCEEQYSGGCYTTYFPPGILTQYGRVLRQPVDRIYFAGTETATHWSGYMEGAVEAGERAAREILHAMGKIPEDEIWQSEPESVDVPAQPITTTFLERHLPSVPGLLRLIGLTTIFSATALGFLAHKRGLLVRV
Put plainly: hMAO B inhibition, fluorometric Amplex Red MAO assay. Format: biochemical. The conditions noted are these: percent of inhibition at 1 μM; mean of two independent experiments; read-out: MAO B (%Inh.).

Data set [3] has as its system haloperidol-induced catalepsy. Description: haloperidol-induced catalepsy, crossed-leg position test. Particulars: mean ± SEM (n = 6). The class given is in vivo, Wistar rats. The protocol: (§1) Haloperidol (dopamine D2 antagonist)-induced catalepsy in rodents is a popular model for screening of antiparkinsonian activity of compounds [21]. Caused symptoms in animals are similar to the inability of PD patients to initiate movements. […] The reversal of catalepsy was tested for 6 min (3 times in 3 min intervals) after 1 h of haloperidol administration. As the reference compound was used MSX-3, the adenosine A2A receptor antagonist with confirmed ability to reverse catalepsy mediated by D1 and D2 receptor antagonists.
(§2) The experiments were carried out on male rats Wistar (180–220 g). Animals were housed in plastic cages in room at a constant temperature of 20 ± 2 °C with natural light–dark cycles. The animals had free access to standard pellet diet and water and were used after a minimum of 3 days of acclimatization to the housing conditions. Control and experimental groups consisted of 6 animals each. All experimental procedures were performed according to the European Union Directive of 22 September 2010 (2010/63/EU) and Polish legislation concerning animal care and use and was approved by the Local Ethics Committee for Experiments on Animals in Kraków, Poland (Resolution No. 70/2014, approval date: 20 May 2014). The examined compound was administered as the suspension in 0.5% methylcellulose in constant volume of 10 mL/kg.
(§3) Antiparkinsonian activity in catalepsy tests was performed as described in [28]. Haloperidol was administered s.c. at a dose of 0.63 mg/kg, which in 100% of control animals caused catalepsy. Tested compounds were administered i.p. at the doses 50 and 25 mg/kg body weight, 5 min after haloperidol injection. After 60 min from the injection of haloperidol, to assess the occurrence of catalepsy, the animals were placed in a forced position and the time they remained in this position was measured. Two tests were performed to determine the antiparkinsonian activity: crossed leg position test and bar test. In the first test, the animals were put on the hind paws behind the front (forced position); in the second, the animals were supported on a wooden block (the front paws were placed on a block suspended 10 cm above the ground). Then, the time that the animals remain is measured in a forced position (time was measured to a maximum of 60 s). Observation was carried out 3 times in 3-min intervals. The shortening of the time of catalepsy to the control group was adopted for the antiparkinsonian activity.

Data set [4] deals with haloperidol-induced catalepsy. Description: haloperidol-induced catalepsy, bar test. Format: in vivo, Wistar rats. Particulars: mean ± SEM (n = 6). The protocol: as §1
Haloperidol-induced catalepsy was not reduced by DL-76 administrated at a dose of 25 mg/kg body weight (Table 3). After administration of DL-76 at a dose of 50 mg/kg body weight, low antiparkinsonian activity in the bar test was observed. […] This effect was weaker than the anti-Parkisonian activity of MSX-3.
as §2, §3

Counter-ions that a name gives are not always drawn.

T1 sequence (Q9Y5N1 whole entry): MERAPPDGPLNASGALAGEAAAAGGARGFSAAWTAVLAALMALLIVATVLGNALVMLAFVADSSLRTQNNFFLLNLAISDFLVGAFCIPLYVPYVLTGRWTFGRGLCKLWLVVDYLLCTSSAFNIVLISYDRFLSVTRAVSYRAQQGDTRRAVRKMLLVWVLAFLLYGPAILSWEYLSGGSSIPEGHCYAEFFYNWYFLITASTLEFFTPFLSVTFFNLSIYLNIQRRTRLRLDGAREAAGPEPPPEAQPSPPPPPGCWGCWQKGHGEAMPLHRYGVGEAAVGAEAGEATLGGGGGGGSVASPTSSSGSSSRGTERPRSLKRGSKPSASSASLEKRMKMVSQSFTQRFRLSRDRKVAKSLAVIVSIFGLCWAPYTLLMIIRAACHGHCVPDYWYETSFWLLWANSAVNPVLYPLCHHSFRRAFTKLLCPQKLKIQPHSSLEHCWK

The term Ki denotes the dissociation constant of the complex between target and ligand, obtained from inhibition or displacement. Broadly, the melting point is the temperature, or range, at which the solid turns liquid. The compound `CC(C)(C)c1ccc(OCCCCCN2CCCCC2)cc1.O=C(O)C(=O)O` [Compound 7, 1-(5-(4-tert-Butylphenoxy)pentyl)piperidine hydrogen oxalate] displayed a melting point of 170 to 172 °C. This compound came in with a Ki in data set [1] of 252 nM. In addition, in data set [2], the inhibition at 1 µM was determined as 28%.
Taken in the same sequence, the figures for `CC(C)(C)c1ccc(OCCCCCCN2CCCCC2)cc1.O=C(O)C(=O)O` [Compound 8, 1-(6-(4-tert-Butylphenoxy)hexyl)piperidine hydrogen oxalate] were 156 to 158 °C, 225 nM and 13%.
The matching figures for `CC1CCCCN1CCCCCOc1ccc(C(C)(C)C)cc1.O=C(O)C(=O)O` (stereo not drawn) [Compound 11, 1-(5-(4-tert-Butylphenoxy)pentyl)-2-methylpiperidine hydrogen oxalate]: 96 to 99 °C, 1560 nM and 36%.
In turn, `CC1CCCN(CCCCOc2ccc(C(C)(C)C)cc2)C1.O=C(O)C(=O)O` (stereo not drawn) [Compound 13, 1-(4-(4-tert-Butylphenoxy)butyl)-3-methylpiperidine hydrogen oxalate] returned a melting point of 148 to 150 °C. Moreover, affinity in data set [1] was put at a Ki of 102 nM.
The compound `CC1CCCN(CCCCCOc2ccc(C(C)(C)C)cc2)C1.O=C(O)C(=O)O` (stereo not drawn) [Compound 14, 1-(5-(4-tert-Butylphenoxy)pentyl)-3-methylpiperidine hydrogen oxalate] registered a melting point of 179 to 181 °C. In addition, the Ki in data set [1] came to 114 nM. Moreover, the inhibition at 1 µM in data set [2] was determined as 33%.
Taken in the same sequence, the figures for `CC1CCCN(CCCCCCOc2ccc(C(C)(C)C)cc2)C1.O=C(O)C(=O)O` (stereo not drawn) [Compound 15, 1-(6-(4-tert-Butylphenoxy)hexyl)-3-methylpiperidine hydrogen oxalate] were 140 to 142 °C, 351 nM and 13%.
Taken in the same sequence, the figures for `CC1(C)CCCN(CCCCOc2ccc(C(C)(C)C)cc2)C1.O=C(O)C(=O)O` [Compound 17, 1-(4-(4-tert-Butylphenoxy)butyl)-3,3-dimethylpiperidine hydrogen oxalate] were 140 to 142 °C, 3440 nM and 38%.
On to `CC1CC(C)CN(CCCOc2ccc(C(C)(C)C)cc2)C1.O=C(O)C(=O)O` (stereo not drawn) [Compound 20, 1-(3-(4-tert-Butylphenoxy)propyl)-3,5-dimethylpiperidine hydrogen oxalate], for which the melting point fell in the range of 143 to 145 °C. In data set [1], this compound had a Ki of 341 nM. Moreover, the inhibition at 1 µM in data set [2] stood at 37%.
The matching figures for `CC1CC(C)CN(CCCCOc2ccc(C(C)(C)C)cc2)C1.O=C(O)C(=O)O` (stereo not drawn) [Compound 21, 1-(4-(4-tert-Butylphenoxy)butyl)-3,5-dimethylpiperidine hydrogen oxalate]: 170 to 172 °C, 1380 nM and 35%.
The matching figures for `CC1CC(C)CN(CCCCCOc2ccc(C(C)(C)C)cc2)C1.O=C(O)C(=O)O` (stereo not drawn) [Compound 22, 1-(5-(4-tert-Butylphenoxy)pentyl)-3,5-dimethylpiperidine hydrogen oxalate]: 175 to 178 °C, 2240 nM and 41%.
The matching figures for `CC1CC(C)CN(CCCCCCOc2ccc(C(C)(C)C)cc2)C1.O=C(O)C(=O)O` (stereo not drawn) [Compound 23, 1-(6-(4-tert-Butylphenoxy)hexyl)-3,5-dimethylpiperidine hydrogen oxalate]: 143 to 145 °C, 2080 nM and 34%.
`CC1CCN(CCCOc2ccc(C(C)(C)C)cc2)CC1.O=C(O)C(=O)O` [Compound 24, 1-(3-(4-tert-Butylphenoxy)propyl)-4-methylpiperidine hydrogen oxalate] yielded a melting point of 158 to 160 °C. This compound also gave a Ki in data set [1] of 316 nM. In data set [2], the inhibition at 1 µM worked out at 37%.
For the compound `CC1CCN(CCCCOc2ccc(C(C)(C)C)cc2)CC1` [Compound 25, 1-(4-(4-tert-Butylphenoxy)butyl)-4-methylpiperidine hydrogen oxalate], the Ki in data set [1] came to 400 nM. Also, the inhibition at 1 µM in data set [2] turned out to be 33%.
Turning to `CC1CCN(CCCCCOc2ccc(C(C)(C)C)cc2)CC1.O=C(O)C(=O)O` [Compound 26, 1-(5-(4-tert-Butylphenoxy)pentyl)-4-methylpiperidine hydrogen oxalate], the melting point lay in the range of 167 to 170 °C. The inhibition constant (Ki) in data set [1] was found to be 531 nM. In addition, the inhibition at 1 µM in data set [2] came out at 39%.
The compound `CC1CCN(CCCCCCOc2ccc(C(C)(C)C)cc2)CC1.O=C(O)C(=O)O` [Compound 27, 1-(6-(4-tert-Butylphenoxy)hexyl)-4-methylpiperidine hydrogen oxalate] came in with a melting point of 136 to 139 °C. Besides, in data set [1], the Ki was determined as 1350 nM. Moreover, in data set [2], the inhibition at 1 µM was determined as 10%.
For the compound `CC(C)(C)c1ccc(OCCCCCN2CCCCCC2)cc1.O=C(O)C(=O)O` [Compound 30, 1-(5-(4-tert-Butylphenoxy)pentyl)-azepane hydrogen oxalate], the melting point lay in the range of 151 to 153 °C. In data set [1], this compound returned a Ki of 324 nM. For the same compound, the inhibition at 1 µM in data set [2] is 18%.
In the case of `CC(C)(C)c1ccc(OCCCCCCN2CCCCCC2)cc1.O=C(O)C(=O)O` [Compound 31, 1-(6-(4-tert-Butylphenoxy)hexyl)-azepane hydrogen oxalate], the melting point lay within 130 to 132 °C. Further, the inhibition at 1 µM in data set [2] was found to be 23%.
Regarding `C#CCn1c(=O)c2c(nc(/C=C/c3cccc(OC)c3)n2C)n(CCCOP(=O)(O)O)c1=O.[Na].[Na]` [MSX-3, (E)-phosphoric acid mono-[3-[8-[2-(3-methoxyphenyl)vinyl]-7-methyl-2,6-dioxo-1-prop-2-ynyl-1,2,6,7-tetrahydro-purin-3-yl]propyl] ester disodium salt, reference compound], the “Times of Observation of Catalepsy (s), 0 min” value in data set [3] (25 mg/kg), in data set [3] (50 mg/kg), in data set [4] (25 mg/kg i.p.) and in data set [4] (50 mg/kg i.p.) was 0 ± 0 s each time. Moreover, the “Times of Observation of Catalepsy (s), 3 min” value in data set [3] (25 mg/kg), in data set [3] (50 mg/kg), in data set [4] (25 mg/kg i.p.) and in data set [4] (50 mg/kg i.p.) was 0 ± 0 s in each case. For the same compound, the “Times of Observation of Catalepsy (s), 6 min” value in data set [3] (25 mg/kg), in data set [3] (50 mg/kg), in data set [4] (25 mg/kg i.p.) and in data set [4] (50 mg/kg i.p.) was 0 ± 0 s in each case.
